Measured values reported in US20130287757A1, “COMPOSITION FOR THE REGENERATION OF ATROPHIC TISSUES” (MEDESTEA INTERNAZIONALE S.P.A., priority 2011, published 2013).

Key:
[1] = tested on: biopsies from chronic atrophic ulcers (base and margins); experiment: FACS of cell suspensions from cultured biopsies; type: cell-based, animal; details: for CK-1, FACS absolute value / CK-5, FACS absolute value / CK-10, FACS absolute value / CK-14, FACS absolute value / Collagen type I, FACS absolute value / Collagen type IV, FACS absolute value: geometric mean +/− Standard Deviation; for CK-1, FACS fluorescence as percentage value / CK-5, FACS fluorescence as percentage value / CK-10, FACS fluorescence as percentage value / CK-14, FACS fluorescence as percentage value / Collagen type I, FACS fluorescence as percentage value / Collagen type IV, FACS fluorescence as percentage value: relative to the isotypes, nonspecific fluorescence deducted
Experimental: The animal biopsy samples investigated are constituted of biopsies from chronic atrophic ulcers (base and margins).
The biopsies were then sectioned into twelve parts ([…] controls, 1-11, and one sample, 12, to be treated for each patient) and suspended in a final volume of 25 ml of the respective culture solutions in plates (Lab-Tek chamber slides, Nunc, Kamstrup, Denmark) of 10 cm.
One type of sample (12th portion of each biopsy investigated) was prepared, as follows: • sample-12: the biopsy findings of sample (12) were placed in plates (Lab-Tek chamber slides, Nunc, Kamstrup, Denmark) of 10 cm in culture medium in a solution Culture medium UL-MD.
All the findings were incubated for 15 days in a Heraeus incubator thermostatically controlled to a temperature of 37° C. with an atmosphere containing 5% of constant supply of CO2 (v/v in air). Two thirds of the culture medium was replaced every 7 days. All biopsy tissues used in culture constitute a possible optional substrate co-conditioning for the three-dimensional growth of the cellular samples investigated.
Cellular suspensions obtained after digestion with collagenase were transferred to 15-ml test tubes (Nunc, Kamstrup, Denmark) and fixed in 4% paraformaldehyde solution for 30 minutes at room temperature. After three washings with PBS (pH 7.4), the cells were permeabilized with Triton 0.1% for 15 minutes, […] at room temperature. The pellets of the samples (Sample, 12) and of the controls (CTRLs, 1-11) were resuspended to a final concentration of 5×10^5 cells/ml in PBS and incubated with the following primary antibodies (ABD serotec, Kidlington-Oxford, UK): anti-collagen type I, anti-collagen type anti-IV and anti-cytokeratins (CK)-1, -5, -10, -14. All monoclonal antibodies conjugated with R-phycoerythrin (PE) or fluorescein isothiocyanate (FITC) were used. Specific controls with the corresponding isotypes were divided for each monoclonal antibody (ABD serotec). The samples were submitted to quantitative analysis by a laser cytofluorometer (Epics profile II, Coulter, Hialeath, FL) at 488 nm, where the percentage of fluorescent cells (PFC) reflects the geometric mean of the field of interest. The threshold values (gates) were established using control samples labelled with the corresponding isotype. All the values were analysed with a minimum threshold of 15 000 cells.
The results relating to the expression of collagen type I, collagen type IV and of cytokeratins (CK) 1, 5, 10 and 14 were expressed with a quantitative scale relative to the fluorescence expressed as a percentage value relative to the isotypes, after deducting the assumed nonspecific fluorescence (specific gate), as follows: […]

[2] = tested on: biopsies from chronic atrophic ulcers (base and margins); experiment: Western Blot phenotypic analysis of cultured biopsies; type: cell-based, animal; set-up: key: −−− = absence of band; −/+ = slight presence of band; + = thin band present; ++ = medium band present; +++ = broad band present; ++++ = high band present; +++++ = diffuse band present; details: 15 days culture
Experimental: The animal biopsy samples investigated are constituted of biopsies from chronic atrophic ulcers (base and margins). The biopsies were then sectioned into twelve parts ([…] controls, 1-11, and one sample, 12, to be treated for each patient) and suspended in a final volume of 25 ml of the respective culture solutions in plates (Lab-Tek chamber slides, Nunc, Kamstrup, Denmark) of 10 cm. Eleven types of control were prepared: • a negative control, untreated (1), i.e. treated exclusively with saline and antibiotics (as described above); • a positive control treated (2) with cell culture media commonly used for skin biopsies; • a control-3 treated with DMEM-LG/F 12 (1:1) culture medium and with the active ingredient described in Table 4. • a control-4 treated with DMEM-LG/F 12 (1:1) culture medium and with the active ingredient described in Table 5. • a control-5 treated with DMEM-LG/F 12 (1:1) culture medium and with the active ingredient described in Table 6. • a control-6 treated with DMEM-LG/F 12 (1:1) culture medium and with the active ingredient described in Table 7. • a control-8 treated with DMEM-LG/F 12 (1:1) culture medium and with the active ingredient described in Table 8. • a control-9 treated with DMEM-LG/F 12 (1:1) culture medium and with the active ingredient described in Table 9. • a control-10 treated with DMEM-LG/F12 (1:1) culture medium and with the active ingredient described in Table 10. • a control-11 treated with DMEM-LG/F12 (1:1) culture medium and with the active ingredient described in Table 11. One type of sample (12th portion of each biopsy investigated) was prepared, as follows: • sample-12: the biopsy findings of sample (12) were placed in plates (Lab-Tek chamber slides, Nunc, Kamstrup, Denmark) of 10 cm in culture medium in a solution Culture medium UL-MD. […] Two thirds of the culture medium was replaced every 7 days. All biopsy tissues used in culture constitute a possible optional substrate co-conditioning for the three-dimensional growth of the cellular samples investigated. […] After five washings, the membranes were incubated with the respective secondary antibodies (1:1000) conjugated with horseradish peroxidase (HRP, Santa Cruz, Calif., USA) for 1 h at room temperature, as shown below in Table 12.

| Molecule | CK-1, FACS absolute value [1] | CK-5, FACS absolute value [1] | CK-10, FACS absolute value [1] | CK-14, FACS absolute value [1] | Collagen type I, FACS absolute value [1] | Collagen type IV, FACS absolute value [1] | CK-1, FACS fluorescence as percentage value [1] | CK-5, FACS fluorescence as percentage value [1] | CK-10, FACS fluorescence as percentage value [1] | CK-14, FACS fluorescence as percentage value [1] | Collagen type I, FACS fluorescence as percentage value [1] | Collagen type IV, FACS fluorescence as percentage value [1] | CK-1 expression, Western Blot band [2] | CK-10 expression, Western Blot band [2] | CK-14 expression, Western Blot band [2] | Collagen type I expression, Western Blot band [2] | Collagen type IV expression, Western Blot band [2] | CK-5 expression, Western Blot band [2] |
| --- | --- | --- | --- | --- | --- | --- | --- | --- | --- | --- | --- | --- | --- | --- | --- | --- | --- | --- |
| O=C(O)c1ccccc1O [CTRL 4, Salicylic acid] | 29 +/− 7 | 6 +/− 5 | 9 +/− 7 | 11 +/− 8 | 12 +/− 3 | 9 +/− 8 | 14% | 0% | 1.9% | 1.25% | 3.9% | 0.3% | ++ | + | + | + | – | – |
| [O]=[Zn] [CTRL 6, Zinc oxide powder] | 14 +/− 11 | 2 +/− 2 | 1 +/− 1 | 10 +/− 7 | 3 +/− 2 | 12 +/− 8 | 3% | 0% | 0% | 1.7% | 0.3% | 1.5% | + | – | + | – | + | – |
| CC1(C)[C@@H](O)CC[C@]2(C)[C@H]3C(=O)C=C4[C@@H]5C[C@@](C)(C(=O)O)CC[C@]5(C)CC[C@@]4(C)[C@]3(C)CC[C@@H]12 [CTRL 8, Glycyrrhetic acid] | 5 +/− 3 | 3 +/− 1 | 4 +/− 1 | 2 +/− 1 | 6 +/− 4 | 7 +/− 5 | 1% | 1% | 0.5% | 0.1% | 0.9% | 0.9% | −/+ | + | −/+ | −/+ | −/+ | −/+ |
| Papain FU (protein, UniProt P00784 134-345, looked up) Papain: IPEYVDWRQKGAVTPVKNQGSCGSCWAFSAVVTIEGIIKIRTGNLNEYSEQELLDCDRRSYGCNGGYPWSALQLVAQYGIHYRNTYPYEGVQRYCRSREKGPYAAKTDGVRQVQPYNEGALLYSIANQPVSVVLEAAGKDFQLYRGGIFVGPCGNKVDHAVAAVGYGPNYILIKNSWGTGWGENGYIRIKRGTGNSYGVCGLYTSSFYPVKN | 11 +/− 9 | 8 +/− 5 | 1 +/− 1 | 19 +/− 14 | 5 +/− 4- | 7 +/− 6 | 2% | 1.2% | 0% | 2% | 0.5% | 0.1% | + | – | + | – | – | + |
